Experimental data: PubChem BioAssay AID1963975 (Molecular Pharmacology Branch, DTP, NCI, 2024)

Tested on: 624824-186-R-J2-PDC multicell spheroids, viability
Assay: Anticancer human tumor 624824-186-R-J2-PDC patient-derived colon adenocarcinoma cell line growth inhibition [PI3K]
Settings: for IC50: curve of first compound; for viability, T/C: stronger effect = lower value; active means viability on the fitted dose curve at most 10% of control; inactive means the rest
Text: Combinatorial screen of targeted agents with the PI3K inhibitors inavolisib, alpelisib, duvelisib, and copanlisib in multi-cell type tumor spheroids
A high-throughput screen of multi-cell type tumor spheroids was designed to identify active combinations of targeted small molecules and PI3K pathway inhibitors. Complex spheroids include a stromal component modeled by human endothelial cells (HUVEC) and fibroblasts modeled by human mesenchymal stem cells (MSCs). The concentration ranges selected for each drug and investigational agent were based upon clinically achievable concentrations if the clinical Cmax of the agent was known.
Compounds. The drugs and investigational agents: inavolisib (NSC800729), alpelisib (NSC765974), duvelisib (NSC772469), copanlisib (NSC816437), ipatasertib (NSC767898), afuresertib (NSC778305), talazoparib (NSC767125), sapanisertib (NSC764658), selumetinib (NSC741078), tovorafenib (DAY101, NSC766906), vemurafenib (NSC761431), ravoxertinib (NSC781343), sotorasib (NSC818433), MRTX1133 (NSC 836407), abemaciclib (NSC 768073), palbociclib (NSC758247), venetoclax (NSC 766270), SY5609 (NSC837396), enzalutamide (NSC755605), and darolutamide (NSC825331), were obtained from the National Cancer Institute (NCI) Developmental Therapeutics Program Chemical Repository. The FDA-approved anticancer drug set is available from the NCI Developmental Therapeutics Program. […] The stock solutions were prepared in dimethyl sulfoxide (DMSO, Sigma-Aldrich, St. Louis, MO, cat. D2650) at 800-fold the tested concentration and stored at -70 degrees C prior to their use. All drugs and investigational agents were tested over a range starting from a high concentration at or near the clinical Cmax and decreasing in half-log increments. If the clinical Cmax for an agent had not been determined, the highest concentration tested was 10 microM.
Cell Culture. All cells were maintained in an incubator at 37 degrees C and 5% CO2 with 95% humidity. The PDC lines were cultured according to standard operating procedures established by the NCI PDMR (https://pdmr.cancer.gov/sops/default.htm). All PDCs were thawed and cultured in Matrigel-coated flasks prepared with a working solution of 1X Ham's F-12 nutrient mix, without supplementation (Invitrogen, Waltham, MA, cat. 11765054), 100 U/mL penicillin-streptomycin (Invitrogen, cat. 15140122), and 2.5% Matrigel (Corning Inc., Corning, NY, cat. 354248) for the first three passages. The 354836-022-R-J1-PDC, 475296-252-R-J1-PDC, and 997726-040-R-J2-PDC lines were cultured in 6A media, which includes advanced DMEM/F-12 (Thermo Fisher Scientific, cat. 12634028), 10 mM HEPES (Thermo Fisher Scientific, cat. 15630080), 1X GlutaMAX supplement (Thermo Fisher Scientific, cat. 35050061), 0.1 mg/mL primocin (InvivoGen, San Diego, CA, cat. ant-pm-2), 10% defined fetal bovine serum, heat inactivated (HyClone Laboratories Inc., Logan, UT, cat. SH30070.03HI), 50% L-WRN conditioned media (ATCC, cat. CRL-3276), 1.25 mM N-Acetyl-L-cysteine (Sigma-Aldrich, cat. A9165), 10 mM nicotinamide (Sigma-Aldrich, cat. N0636), 1X B-27 supplement (Thermo Fisher Scientific, cat. 17504044), 1X N-2 supplement (Thermo Fisher Scientific, cat. 17502048), and 10 microM Y-27632 dihydrochloride (Tocris Bioscience, Bristol, United Kingdom, cat. 1254). The 624824-186-R-J2-PDC line was cultured in 6C/Colon 1B media, which includes all 6A media components plus 50 ng/mL human EGF recombinant protein (Thermo Fisher Scientific, cat. PHG0311). […]
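Further: spheroids exposed to agents for 7 days before viability read.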
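Wherever viability, T/C is given: 100% = DMSO vehicle treated spheroids.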

C[C@@H](NC(=O)c1ncnc(N)c1Cl)c1ncc(C(=O)Nc2cc(C(F)(F)F)c(Cl)cn2)s1 + CC(Nc1ncnc2nc[nH]c12)c1cc2cccc(Cl)c2c(=O)n1-c1ccccc1
inactive: viability, T/C (second compound 0.0316 µM, first compound 0.0316 µM) 94% | viability, T/C (second compound 0.0316 µM, first compound 0.1 µM) 106% | viability, T/C (second compound 0.0316 µM, first compound 0.316 µM) 78.6% | viability, T/C (second compound 0.0316 µM, first compound 1 µM) 69.9% | viability, T/C (second compound 0.0316 µM, first compound 3.16 µM) 55.4% | viability, T/C (second compound 0.0316 µM, first compound 10 µM) 67.2% | viability, T/C (second compound 0.1 µM, first compound 0.0316 µM) 85.3% | viability, T/C (second compound 0.1 µM, first compound 0.1 µM) 82.3% | viability, T/C (second compound 0.1 µM, first compound 0.316 µM) 81.1% | viability, T/C (second compound 0.1 µM, first compound 1 µM) 67.7% | viability, T/C (second compound 0.1 µM, first compound 3.16 µM) 57% | viability, T/C (second compound 0.1 µM, first compound 10 µM) 56% | viability, T/C (second compound 0.316 µM, first compound 0.0316 µM) 100% | viability, T/C (second compound 0.316 µM, first compound 0.1 µM) 99.3% | viability, T/C (second compound 0.316 µM, first compound 0.316 µM) 89.8% | viability, T/C (second compound 0.316 µM, first compound 1 µM) 65.4% | viability, T/C (second compound 0.316 µM, first compound 3.16 µM) 55.9% | viability, T/C (second compound 0.316 µM, first compound 10 µM) 58% | viability, T/C (second compound 1 µM, first compound 0.0316 µM) 110% | viability, T/C (second compound 1 µM, first compound 0.1 µM) 85.6% | viability, T/C (second compound 1 µM, first compound 0.316 µM) 87.3% | viability, T/C (second compound 1 µM, first compound 1 µM) 63.1% | viability, T/C (second compound 1 µM, first compound 3.16 µM) 55% | viability, T/C (second compound 1 µM, first compound 10 µM) 54.1% | viability, T/C (second compound 3.16 µM, first compound 0.0316 µM) 94.5% | viability, T/C (second compound 3.16 µM, first compound 0.1 µM) 93.9% | viability, T/C (second compound 3.16 µM, first compound 0.316 µM) 65.4% | viability, T/C (second compound 3.16 µM, first compound 1 µM) 65.6% | viability, T/C (second compound 3.16 µM, first compound 3.16 µM) 54.7% | viability, T/C (second compound 3.16 µM, first compound 10 µM) 59.6% | viability, T/C (second compound 10 µM, first compound 0.0316 µM) 95.9% | viability, T/C (second compound 10 µM, first compound 0.1 µM) 92% | viability, T/C (second compound 10 µM, first compound 0.316 µM) 99.9% | viability, T/C (second compound 10 µM, first compound 1 µM) 77.2% | viability, T/C (second compound 10 µM, first compound 3.16 µM) 65.7% | viability, T/C (second compound 10 µM, first compound 10 µM) 57.8%
> 10 µM: IC50 (second compound 0.0316 µM) | IC50 (second compound 0.1 µM) | IC50 (second compound 0.316 µM) | IC50 (second compound 1 µM) | IC50 (second compound 3.16 µM) | IC50 (second compound 10 µM)
